# Values quoted from earlier work, collected in US4033823A, “Process to produce lysocellin” (Hoffmann-La Roche Inc., priority 1976, dated 1977).
# Columns and labels:
# [1] = system: Staphylococcus aureus FDA 209P
# [2] = system: Antibiotic resistant S. aureus; settings: S. aureus resistant to streptomycin, erythromycin, chloramphenicol and penicillin
# Bacillus subtilis [3] = system: Bacillus subtilis
# [4] = system: Antibiotic resistant E. coli; settings: E. coli resistant to streptomycin, chloramphenicol, kanamycin, tetracyclin and sulfonamide
# [5] = system: antibiotic resistant Staphylococcus aureus
# fungi = settings: some fungi
# Bacillus subtilis [6] = settings: Bacillus subtilis grown on liquid medium
# staphylococcus aureus = settings: intraperitoneal administration
# [7] = mice, intraperitoneally
# [8] = 66% dimethylformamide
substance,measurement,setting,value
Lysocellin,Minimum inhibitory Concentration,[1],10 µg/mL
same,Minimum inhibitory Concentration,[2],4 µg/mL
same,Minimum inhibitory Concentration,Sarcina lutea,10 µg/mL
same,Minimum inhibitory Concentration,Bacillus subtilis [3],10 µg/mL
same,Minimum inhibitory Concentration,Mycobacterium smegmatis,20 µg/mL
same,Minimum inhibitory Concentration,Escherichia coli,> 100 µg/mL
same,Minimum inhibitory Concentration,[4],> 100 µg/mL
same,Minimum inhibitory Concentration,Shigella dysenteriae,> 100 µg/mL
same,Minimum inhibitory Concentration,Salmonella typhimurium,> 100 µg/mL
same,Minimum inhibitory Concentration,Pseudomonas aeruginosa,> 100 µg/mL
same,Minimum inhibitory Concentration,Botrytis cinerea,50 µg/mL
same,Minimum inhibitory Concentration,Helminthosporium oryzae,50 µg/mL
same,Minimum inhibitory Concentration,Fusarium oxysporum,100 µg/mL
same,Minimum inhibitory Concentration,Alternaria kikuchiana,100 µg/mL
same,Antimicrobial activity,gram-positive bacteria,active
same,Antimicrobial activity,[5],active
same,Antimicrobial activity,fungi,active against some fungi
same,Antimicrobial activity,gram-negative bacteria,not active
same,bacterial lysis,Bacillus subtilis [6],caused bacterial lysis
same,activity against staphylococcus aureus infection in mice,staphylococcus aureus,inactive
same,LD50,[7],about 70 mg/kg
same,pKa',[8],6.6
